Measured values reported in patent publication US6737383B1, “Herbicidal oxadiazolidines” (priority 1999, dated 2004).

Assays:
bedstraw = experiment: Test B pre/postemergence bedstraw; format: in vivo, Galium aparine; conditions: Rate 62 g/ha, Postemergence; scale 0 to 10, 0 no effect, 10 complete control
Procedure, shortened: (§1)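 Response is a visual 0-to-10 score relative to untreated plants, where 0 means no effect and 10 means complete control, taken twelve to sixteen days after application. Treatments went onto soil at planting and onto foliage of 1- to 4-leaf plants, using a surfactant-containing non-phytotoxic solvent.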

blackgrass = experiment: Test B pre/postemergence blackgrass; format: in vivo, Alopecurus myosuroides
Procedure, shortened: as §1

surinam grass = experiment: Test B pre/postemergence surinam grass; format: in vivo, Brachiaria decumbens
Procedure, shortened: as §1

cocklebur = experiment: Test B pre/postemergence cocklebur; format: in vivo, Xanthium strumarium
Procedure, shortened: as §1

corn = experiment: Test B pre/postemergence corn; format: in vivo, Zea mays
Procedure, shortened: as §1

giant foxtail = experiment: Test B pre/postemergence giant foxtail; format: in vivo, Setaria faberii
Procedure, shortened: as §1

morningglory = experiment: Test B pre/postemergence morningglory; format: in vivo, Ipomoea hederacea
Procedure, shortened: as §1

pigweed = experiment: Test B pre/postemergence pigweed; format: in vivo, Amaranthus retroflexus
Procedure, shortened: as §1

rape = experiment: Test B pre/postemergence rape; format: in vivo, Brassica napus
Procedure, shortened: as §1

soybean = experiment: Test B pre/postemergence soybean; format: in vivo, Glycine max
Procedure, shortened: as §1

sugar beet = experiment: Test B pre/postemergence sugar beet; format: in vivo, Beta vulgaris
Procedure, shortened: as §1

velvetleaf = experiment: Test B pre/postemergence velvetleaf; format: in vivo, Abutilon theophrasti
Procedure, shortened: as §1

wheat = experiment: Test B pre/postemergence wheat; format: in vivo, Triticum aestivum
Procedure, shortened: as §1

wild oat = experiment: Test B pre/postemergence wild oat; format: in vivo, Avena fatua
Procedure, shortened: as §1

rice = experiment: Test B flood test rice; format: in vivo, Oryza sativa
Procedure, shortened: (§2)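 Each value is a visual injury score relative to controls, with 10 meaning complete control and 0 no effect. Evaluation took place twelve to sixteen days after the 2-leaf-stage plants were treated and kept in the greenhouse.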

smallflower flatsedge = experiment: Test B flood test smallflower flatsedge; format: in vivo, Cyperus difformis
Procedure, shortened: as §2

[1] = Postemergence, Rate 250 g/ha, scale 0 to 10
[2] = Postemergence, Rate 500 g/ha, scale of 0 to 10 where 0 is no effect and 10 is complete control
[3] = Preemergence, Rate 62 g/ha, scale of 0 to 10 where 0 is no effect and 10 is complete control
[4] = Preemergence, Rate 125 g/ha, scale of 0 to 10 where 0 is no effect and 10 is complete control
[5] = Preemergence, Rate 250 g/ha, scale 0 to 10, 0 is no effect, 10 is complete control
[6] = Preemergence, Rate 500 g/ha, scale 0 to 10, 0 is no effect, 10 is complete control
[7] = Rate 62 g/ha, Postemergence, scale 0 to 10, 0 no effect, 10 complete control
[8] = Rate 125 g/ha, Postemergence, scale 0 to 10, 0 is no effect, 10 is complete control
[9] = Rate 62 g/ha, flood test species, Pre-emergence, visual evaluation after twelve to sixteen days
[10] = Rate 125 g/ha, under heading Pre-emergence, flood test species, visual evaluation after twelve to sixteen days
[11] = Rate 250 g/ha, Pre-emergence (flood test species), scale 0 to 10, 0 is no effect, 10 is complete control
[12] = Rate 500 g/ha, Pre-emergence, flood test species, scale 0 to 10 (0 no effect, 10 complete control)

Cc1nc(C)c(C(C)n2c(=O)on(C(=O)N(c3ccc(F)cc3F)C(C)C)c2=O)s1 (centres unmarked) [Compound 443]
Bedstraw plant response rating (bedstraw): 0 | Blackgrass plant response rating (blackgrass; [1]): 0 | Blackgrass plant response rating (blackgrass; [2]): 0 | Plant response rating, Blackgrass (blackgrass; [3]): 0 | Plant response rating, Blackgrass (blackgrass; [4]): 0 | Blackgrass plant response rating (blackgrass; [5]): 0 | Blackgrass plant response rating (blackgrass; [6]): 0 | Blackgrass plant response rating (blackgrass; [7]): 0 | Blackgrass plant response rating (blackgrass; [8]): 0 | B. signalgrass plant response rating (surinam grass; Postemergence, Rate 250 g/ha, scale 0 to 10, 0 no effect, 10 complete control): 0 | B. signalgrass plant response rating (surinam grass; [2]): 0 | Plant response rating, B. signalgrass (surinam grass; [3]): 0 | Plant response rating, B. signalgrass (surinam grass; [4]): 0 | B. signalgrass plant response rating (surinam grass; [5]): 0 | B. signalgrass plant response rating (surinam grass; [6]): 10 | B. signalgrass plant response rating (surinam grass; [7]): 0 | B. signalgrass plant response rating (surinam grass; [8]): 0 | Cocklebur plant response rating (cocklebur; [1]): 0 | Cocklebur plant response rating (cocklebur; [2]): 0 | Plant response rating, Cocklebur (cocklebur; [3]): 0 | Plant response rating, Cocklebur (cocklebur; [4]): 0 | Cocklebur plant response rating (cocklebur; [5]): 0 | Cocklebur plant response rating (cocklebur; [6]): 0 | Cocklebur plant response rating (cocklebur; [7]): 0 | Cocklebur plant response rating (cocklebur; [8]): 0 | Corn plant response rating (corn; [1]): 0 | Corn plant response rating (corn; [2]): 0 | Plant response rating, Corn (corn; [3]): 0 | Plant response rating, Corn (corn; [4]): 0 | Corn plant response rating (corn; [5]): 0 | Corn plant response rating (corn; [6]): 0 | Corn plant response rating (corn; [7]): 0 | Corn plant response rating (corn; [8]): 0 | Giant foxtail plant response rating (giant foxtail; [1]): 0 | Giant foxtail plant response rating (giant foxtail; [2]): 0 | Plant response rating, Giant foxtail (giant foxtail; [3]): 3 | Plant response rating, Giant foxtail (giant foxtail; [4]): 4 | Giant foxtail plant response rating (giant foxtail; [5]): 10 | Giant foxtail plant response rating (giant foxtail; [6]): 10 | Giant foxtail plant response rating (giant foxtail; [7]): 0 | Giant foxtail plant response rating (giant foxtail; [8]): 0 | Morningglory plant response rating (morningglory; [1]): 4 | Morningglory plant response rating (morningglory; [2]): 4 | Plant response rating, Morningglory (morningglory; [3]): 0 | Plant response rating, Morningglory (morningglory; [4]): 0 | Morningglory plant response rating (morningglory; [5]): 0 | Morningglory plant response rating (morningglory; [6]): 0 | Morningglory plant response rating (morningglory; [7]): 2 | Morningglory plant response rating (morningglory; [8]): 3 | Redroot pigweed plant response rating (pigweed; [1]): 0 | Redroot pigweed plant response rating (pigweed; [2]): 0 | Plant response rating, Redroot pigweed (pigweed; [3]): 0 | Plant response rating, Redroot pigweed (pigweed; [4]): 0 | Redroot pigweed plant response rating (pigweed; [5]): 0 | Redroot pigweed plant response rating (pigweed; [6]): 6 | Redroot pigweed plant response rating (pigweed; [7]): 0 | Redroot pigweed plant response rating (pigweed; [8]): 0 | Rape plant response rating (rape; [1]): 0 | Rape plant response rating (rape; [2]): 0 | Plant response rating, Rape (rape; [3]): 0 | Plant response rating, Rape (rape; [4]): 0 | Rape plant response rating (rape; [5]): 0 | Rape plant response rating (rape; [6]): 0 | Rape plant response rating (rape; [7]): 0 | Rape plant response rating (rape; [8]): 0 | Soybean plant response rating (soybean; [1]): 1 | Soybean plant response rating (soybean; [2]): 2 | Plant response rating, Soybean (soybean; [3]): 0 | Plant response rating, Soybean (soybean; [4]): 0 | Soybean plant response rating (soybean; [5]): 0 | Soybean plant response rating (soybean; [6]): 0 | Soybean plant response rating (soybean; [7]): 1 | Soybean plant response rating (soybean; [8]): 1 | Sugarbeets plant response rating (sugar beet; [1]): 0 | Sugarbeets plant response rating (sugar beet; [2]): 0 | Plant response rating, Sugarbeets (sugar beet; [3]): 0 | Plant response rating, Sugarbeets (sugar beet; [4]): 0 | Sugarbeets plant response rating (sugar beet; [5]): 0 | Sugarbeets plant response rating (sugar beet; [6]): 0 | Sugarbeets plant response rating (sugar beet; [7]): 0 | Sugarbeets plant response rating (sugar beet; [8]): 0 | Velvetleaf plant response rating (velvetleaf; [1]): 0 | Velvetleaf plant response rating (velvetleaf; [2]): 0 | Plant response rating, Velvetleaf (velvetleaf; [3]): 0 | Plant response rating, Velvetleaf (velvetleaf; [4]): 0 | Velvetleaf plant response rating (velvetleaf; [5]): 0 | Velvetleaf plant response rating (velvetleaf; [6]): 0 | Velvetleaf plant response rating (velvetleaf; [7]): 0 | Velvetleaf plant response rating (velvetleaf; [8]): 0 | Wheat plant response rating (wheat; [1]): 0 | Wheat plant response rating (wheat; [2]): 0 | Plant response rating, Wheat (wheat; [3]): 0 | Plant response rating, Wheat (wheat; [4]): 0 | Wheat plant response rating (wheat; [5]): 0 | Wheat plant response rating (wheat; [6]): 0 | Wheat plant response rating (wheat; [7]): 0 | Wheat plant response rating (wheat; [8]): 0 | Wild oats plant response rating (wild oat; [1]): 0 | Wild oats plant response rating (wild oat; [2]): 0 | Plant response rating, Wild oats (wild oat; [3]): 0 | Plant response rating, Wild oats (wild oat; [4]): 0 | Wild oats plant response rating (wild oat; [5]): 0 | Wild oats plant response rating (wild oat; [6]): 0 | Wild oats plant response rating (wild oat; [7]): 0 | Wild oats plant response rating (wild oat; [8]): 0 | Plant response rating, Rice (0 to 10 scale, 0 is no effect, 10 is complete control) (rice; [9]): 0 | Rice plant response rating (0 to 10 scale, 0 is no effect, 10 is complete control) (rice; [10]): 0 | Rice plant response rating (rice; [11]): 0 | Rice plant response rating (rice; [12]): 0 | Plant response rating, S. Flatsedge (0 to 10 scale, 0 is no effect, 10 is complete control) (smallflower flatsedge; [9]): 0 | S. Flatsedge plant response rating (0 to 10 scale, 0 is no effect, 10 is complete control) (smallflower flatsedge; [10]): 0 | S. Flatsedge plant response rating (smallflower flatsedge; [11]): 0 | S. Flatsedge plant response rating (smallflower flatsedge; [12]): 0
